The results in this text go back to publication PMC12301034, “Design and Synthesis of Boronic Chalcones with Dual Anticancer and Anti-Inflammatory Activity” (Molecules, 2025).

One assay concerns TNF. Put plainly: Anti-inflammatory assay, TNF in LPS-stimulated THP-1 cells (CBA). Type of assay: cell-based, human. The protocol:
For this assay, THP-1 (BCRJ cód. 0234) cells were cultured in Roswell Park Memorial Institute (RPMI-1640, Sigma-Aldrich; Saint Louis, MO, USA) media supplemented with 2 mM L-glutamine, 1 mM sodium pyruvate, 1.50 g/L of sodium bicarbonate, and 10% fetal bovine serum. For obtaining Macrophage-like cells, 250,000 cells per well were plated in a 24-well cell culture plate. A total of 20 ng/mL of Forbol 12-miristato-13-acetato (PMA) was added to each well, and the cells were incubated for 48 h at 37 °C with 5% CO2. After the 48 h, the wells were washed with 1X PBS, and fresh RPMI-1640 media was added. The cells were then incubated for 24 h at 37 °C and 5% CO2. For the cell’s stimulations, after the 24 h, the well was washed with PBS and fresh RPMI1640 media without fetal bovine serum added. For the positive controls of the assay, 3 wells were stimulated with LPS (1 ng/µL) diluted in the same volume and media used for the drugs stimulation. Two different concentrations (2 and 4 µg/mL) were evaluated for each molecule, which were determined to be non-cytotoxic through a cell viability assay. After a 24 h period, the supernatant was removed and used in the cytokine quantification assay. A kit for inflammatory cytokines, BD® Cytometric Bead Array CBA Human Inflammatory, was employed for this assay, containing the following human cytokines: IL-8, IL-1β, IL-6, and TNF. Standard cytokines were prepared in 9 different concentrations: 1:256, 1:128, 1:64, 1:32, 1:16, 1:8, 1:4, 1:2, and 1:1 (“top standard”). Analysis was performed using a Flow Cytometer FACS Aria Fusion BD (Bioscence, Houston, TX, USA). Data analysis was conducted using Prism software (version 10.4.1).

The test system of another assay is IL-6. Put plainly: Anti-inflammatory assay, IL-6 in LPS-stimulated THP-1 cells (CBA). Particulars: 2 and 4 µg/mL, 24 h. In kind it is cell-based, human. The protocol:
For this assay, THP-1 (BCRJ cód. 0234) cells were cultured in Roswell Park Memorial Institute (RPMI-1640, Sigma-Aldrich; Saint Louis, MO, USA) media supplemented with 2 mM L-glutamine, 1 mM sodium pyruvate, 1.50 g/L of sodium bicarbonate, and 10% fetal bovine serum. For obtaining Macrophage-like cells, 250,000 cells per well were plated in a 24-well cell culture plate. A total of 20 ng/mL of Forbol 12-miristato-13-acetato (PMA) was added to each well, and the cells were incubated for 48 h at 37 °C with 5% CO2. After the 48 h, the wells were washed with 1X PBS, and fresh RPMI-1640 media was added. The cells were then incubated for 24 h at 37 °C and 5% CO2. For the cell’s stimulations, after the 24 h, the well was washed with PBS and fresh RPMI1640 media without fetal bovine serum added. For the positive controls of the assay, 3 wells were stimulated with LPS (1 ng/µL) diluted in the same volume and media used for the drugs stimulation. Two different concentrations (2 and 4 µg/mL) were evaluated for each molecule, which were determined to be non-cytotoxic through a cell viability assay. After a 24 h period, the supernatant was removed and used in the cytokine quantification assay. A kit for inflammatory cytokines, BD® Cytometric Bead Array CBA Human Inflammatory, was employed for this assay, containing the following human cytokines: IL-8, IL-1β, IL-6, and TNF. […]

Another assay relates to SCC-25 cells. Put plainly: MTT cytotoxicity assay on SCC-25 cells. In kind it is cell-based, human. Particulars: Homo sapiens, SCC-25; MTT, 24 h incubation, mean SEM of three experiments. An excerpt: (§1) The SCC-25 (ATCC® CRL-1628™), Detroit-562 (ATCC® CCL-138™), and THP-1 (ATCC® TIB-202™) cells were purchased from Rio de Janeiro Cell Bank (Duque de Caxias, Brazil), and NOK-si was kindly provided by Prof. Carlos Rossa from the School of Dentistry—UNESP. All the cells were cultivated according to standard conditions. Human colorectal adenocarcinoma HCT116 cell lines (ATCC® CCL-247™) expressing p53 and its p53-null isogenic derivative (HCT116 p53^−/−) were provided by B. Vogelstein (The Johns Hopkins Kimmel Cancer Center, Baltimore, MD, USA).
(§2) Cells (NOK-si, SCC-25, and Detroit-562) were grown in a DMEM medium (Dulbecco’s Modified Eagle Medium), supplemented according to the needs of each lineage, as recommended by its cell banks, with 2 mM L-glutamine, 10% or 20% fetal bovine serum (FBS), 1% antibiotic–antimycotic solution (5 mg/mL penicillin, 5 mg/mL streptomycin, and 10 mg/mL neomycin), 4.5 g/L of glucose, and 3.7 g/L of sodium bicarbonate (NaHCO3). All cell lines were cultured in flasks at 37 °C in 5% carbon dioxide (CO2) and 95% of relative humidity. The assays were conducted between the third- and the seventh-cell passage, with sub-cultures every 3–4 days to maintain exponential growth. The cell viability was checked using the trypan blue dye exclusion assay for all experiments, where over 95% of the cells were viable at the beginning of the tests. NOK-si, SCC-25, and Detroit-562 were initially thawed and cultured in 25 cm^2 cell culture flasks. Cell growth was monitored using a microscope, and the culture medium was changed periodically. Upon reaching confluency, cell dissociation was achieved by adding 5 mL of trypsin (Sigma-Aldrich, St Louis, MO, USA) and incubating the bottles in a CO2 incubator for 10 min. Subsequently, the cells were transferred to 15 mL Falcon tubes and centrifuged at 2000 rpm for 10 min. Cell counting was performed using a Countess II FL automated cell counter (ThermoFischer, Waltham, MA, USA). The cells were seeded at a density of 30,000 cells per well in 96-well plates. The plates were then incubated at 37 °C in 5% CO2 for 24 h. Following this, test compounds were incubated for another 24 h at 10 different concentrations: 50, 25, 12.5, 6.25, 3.12, 1.56, 0.78, 0.39, 0.19, and 0.097 µg/mL. After the specified time, MTT reagent (3 mg/mL) (Sigma-Aldrich, St Louis, MO, USA) dissolved in phenol-free RPMI 1640 was added and incubated for 4 h. The formed MTT crystals were solubilized using 2-propanol P.A. (Sigma-Aldrich, St Louis, MO, USA) with agitation. Absorbance was read at 562 nm using an EZ Read 400 microplate reader (Biochrom, Cambridge, UK) and ADAP 2.0 Biochrom software (version 2.0). IC50 values and graphs were calculated using Excel and Prism software (version 10.4.1). The MTT assay results were evaluated for normality using the Shapiro–Wilk test, followed by one-way ANOVA with Tukey’s post hoc test at a significance level of 5%.

The test system of the next assay is Detroit-562 cells. Put plainly: MTT cytotoxicity assay on Detroit-562 cells. Type of assay: cell-based.
Source text: as §1
Cells (NOK-si, SCC-25, and Detroit-562) were grown in a DMEM medium (Dulbecco’s Modified Eagle Medium), supplemented according to the needs of each lineage, as recommended by its cell banks, with 2 mM L-glutamine, 10% or 20% fetal bovine serum (FBS), 1% antibiotic–antimycotic solution (5 mg/mL penicillin, 5 mg/mL streptomycin, and 10 mg/mL neomycin), 4.5 g/L of glucose, and 3.7 g/L of sodium bicarbonate (NaHCO3). All cell lines were cultured in flasks at 37 °C in 5% carbon dioxide (CO2) and 95% of relative humidity. The assays were conducted between the third- and the seventh-cell passage, with sub-cultures every 3–4 days to maintain exponential growth. The cell viability was checked using the trypan blue dye exclusion assay for all experiments, where over 95% of the cells were viable at the beginning of the tests. NOK-si, SCC-25, and Detroit-562 were initially thawed and cultured in 25 cm^2 cell culture flasks. Cell growth was monitored using a microscope, and the culture medium was changed periodically. […] Absorbance was read at 562 nm using an EZ Read 400 microplate reader (Biochrom, Cambridge, UK) and ADAP 2.0 Biochrom software (version 2.0). IC50 values and graphs were calculated using Excel and Prism software (version 10.4.1). The MTT assay results were evaluated for normality using the Shapiro–Wilk test, followed by one-way ANOVA with Tukey’s post hoc test at a significance level of 5%.

The test system of another assay is NOK-si cells. Put plainly: MTT cytotoxicity assay on NOK-si normal oral keratinocytes. Particulars: 24 h incubation. Type of assay: cell-based.
Source text: as §1, §2

“Also recorded” adds a separate entry of the source.

Regarding `COc1cccc(C(=O)/C=C/c2cccc(B(O)O)c2)c1` [Compound 5, (E)-(3-(3-(3-methoxyphenyl)-3-oxoprop-1-en-1-yl)phenyl)boronic acid], the “TNF levels relative to untreated THP-1 cells” value with TNF (7.1 μM) is reported as “reducing them below those of untreated THP-1 cells”. Besides, the “reduction of TNF levels” value with TNF (2 and 4 µg/mL, 24 h) is reported as “significantly reduced; also recorded: pronounced reduction”. Also, the “reduction of IL-6 levels” value with IL-6 is given as “significantly reduced; also recorded: pronounced reduction”. The IC50 in the assay with SCC-25 cells was found to be 17.9 ± 0.35 µM; in the assay on Detroit-562 cells (Homo sapiens, MTT, 24 h incubation, Detroit-562 metastatic pharyngeal cancer model), 33.1 ± 5.1 µM. Moreover, in the assay with Detroit-562 cells (selectivity index), the “SI against the metastatic cell line (NOK-si vs Detroit-562)” value was “greater than 1.7”. Also, in the assay with NOK-si cells, the “NOK-si IC50” value stood at 58.9 ± 10.63 µM. The CC50 with NOK-si cells (Keratinocyte, read-out: NOK-si IC50) worked out at 58.9 µM.
